Reference: patent publication EP3693740A1, “IMPROVED DITHIOCARMABATE BASED COMPOUNDS, THERAPIES AND DIAGNOSTICS” (Deutsches Krebsforschungszentrum, Stiftung des öffentlichen …, priority 2019, dated 2020)

Tests used:
TRXR1 [1] = target: T1, TRXR1 (Homo sapiens, UniProt Q16881)
roGFP2-Orp1 = test: Oxidation of the genetically encoded H2O2 probe roGFP2-Orp1 (cytoplasmic and mitochondrial); assay type: cell-based; conditions: for reversibility of probe oxidation: concentrations below the EC50 of DKFZ-608
TRXR1 [2] = target: T1, TRXR1; remark: listed apart in the source
SCLC cell line H209 = test: Induction of apoptotic cell death; assay type: cell-based
Text: Treatment with DKFZ-608 caused morphological changes of the nucleus reminiscent of apoptosis (Figure 1A). […] The inventors then investigated the possible involvement of apoptotic mechanisms in the SCLC cell line H209. […] It was also investigated whether alternative cell death mechanisms like ferroptosis, necroptosis or entosis contribute to the cytotoxicity of DKFZ-608 on SCLC. Inhibitors of those cell death programs were, however, not able to desensitize SCLC cells.

[3] = target: truncated form of TRXR1, lacking the Sec (TRXR1ΔSec) (Homo sapiens, UniProt Q16881)
Chain of truncated form of TRXR1, lacking the Sec (TRXR1ΔSec) (Q16881 151-647 limits assumed, stated change not applied): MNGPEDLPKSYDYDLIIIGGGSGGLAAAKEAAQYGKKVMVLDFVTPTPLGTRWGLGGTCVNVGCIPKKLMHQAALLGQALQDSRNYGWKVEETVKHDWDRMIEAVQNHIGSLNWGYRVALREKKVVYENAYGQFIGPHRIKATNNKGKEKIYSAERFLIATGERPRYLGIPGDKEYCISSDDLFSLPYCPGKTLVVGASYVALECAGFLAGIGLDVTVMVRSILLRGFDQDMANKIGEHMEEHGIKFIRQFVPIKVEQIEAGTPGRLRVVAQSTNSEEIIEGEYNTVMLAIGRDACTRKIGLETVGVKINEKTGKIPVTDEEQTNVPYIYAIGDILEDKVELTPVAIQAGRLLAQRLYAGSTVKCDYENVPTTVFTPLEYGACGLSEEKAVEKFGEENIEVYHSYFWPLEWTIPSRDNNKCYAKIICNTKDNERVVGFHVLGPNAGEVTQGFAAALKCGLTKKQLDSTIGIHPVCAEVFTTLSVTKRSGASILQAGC
Text: The present invention will now be further described in the following examples with reference to the accompanying figures and sequences, nevertheless, without being limited thereto. For the purposes of the present invention, all references as cited herein are incorporated by reference in their entireties.

SCLC = SCLC animal model, residual tumour cells after first line therapy; assay type: in vivo
Text: In context of the herein disclosed invention it was discovered, that thioredoxin reductase 1 (TRXR1), when inhibited competitively, is a promising drug target for SCLC. DKFZ-608, a homoleptic dithiocarbamate gold complex, reversibly binds TRXR1 in competition with the TRXR1 substrate thioredoxin-1 (TRX1). Consequently, cells expressing low levels of TRX1, like SCLC, are hypersensitive to DKFZ-608, while cells, which express higher levels of TRX1, are resistant. DKFZ-608 causes oxidative stress in the cytoplasm, but not in mitochondria, further contributing to its low toxicity profile.

[4] = test system: peroxides (most likely H2O2); test: Peroxide quantification with ROS Glo probe (boronate-caged luciferin precursor); assay type: cell-based
Text: Gold(I) complexes have been previously reported to induce pro-oxidative effects in tumour cells.

TRXR1 [5] = target: T1, TRXR1; remark: listed apart in the source
TRXR1 [6] = target: T1, TRXR1; conditions: inhibitors pre-incubated with TRXR1 before addition of TRX1
Text: The mode of inhibition was further characterized by investigating the effect of substrate competition.

T1 sequence (Q16881 151-649 limits assumed): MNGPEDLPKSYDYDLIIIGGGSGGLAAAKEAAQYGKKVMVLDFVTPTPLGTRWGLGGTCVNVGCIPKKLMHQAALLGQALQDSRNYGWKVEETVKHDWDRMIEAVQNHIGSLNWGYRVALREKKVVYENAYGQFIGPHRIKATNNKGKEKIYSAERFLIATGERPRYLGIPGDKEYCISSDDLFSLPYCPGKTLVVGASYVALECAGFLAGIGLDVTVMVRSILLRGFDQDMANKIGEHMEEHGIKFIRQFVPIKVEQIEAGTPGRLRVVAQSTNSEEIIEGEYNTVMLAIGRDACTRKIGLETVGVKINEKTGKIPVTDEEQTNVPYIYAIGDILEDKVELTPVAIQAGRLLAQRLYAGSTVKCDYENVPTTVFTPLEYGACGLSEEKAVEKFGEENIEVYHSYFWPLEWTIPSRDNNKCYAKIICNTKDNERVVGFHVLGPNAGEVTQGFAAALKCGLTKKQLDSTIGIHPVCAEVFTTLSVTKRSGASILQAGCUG

SMILES	enzymatic activity after dilution of a sample containing TRXR1 and a high concentration of inhibitor (TRXR1 [1])	reversibility of probe oxidation (roGFP2-Orp1)	oxidation of the mitochondrial roGFP2-Orp1 probe (roGFP2-Orp1)	TRXR1 inhibition in cells (TRXR1 [2]; H209 versus A549, TRXR1 inhibition after 100min)	dose response curves upon induced overexpression of TRX1 (TRXR1 [2]; SCLC line H69)	cytotoxic effect in presence of pan-Caspase inhibitor (SCLC cell line H209; H209)	Annexin-V positive cells and late apoptotic cells (SCLC cell line H209; data not shown)	inhibition of TRXR1ΔSec [3]	tumour recurrence (SCLC)	increase of peroxides [4]	effect of DTNB substrate increase on dose response curve (TRXR1 [5])	effect of increasing amounts of TRX1 on enzyme inhibition (TRXR1 [6])
CCN(CC)C1=[S+][Au-][S]C(N(CC)CC)=[S+][Au-][S]1 [DKFZ-608]	resulted in recovery of enzymatic activity	appears to be reversible	did not cause oxidation of the mitochondrial probe	more potent inhibition of TRXR1 in the SCLC line H209 as compared to the NSCLC line A549	rightshift of the dose response curves of cytotoxicity and TRXR1 inhibition	could be reverted by the pan-Caspase inhibitor z-VAD-FMK	increases the amount of Annexin-V positive cells and late apoptotic cells	not inhibited	completely prevents tumour recurrence	induced fast and strong increase of peroxides	right-shift of the dose response curve	increasing amounts of TRX1 reduced enzyme inhibition
CC[P+](CC)(CC)[Au-][S][C@@H]1O[C@H](COC(C)=O)[C@@H](OC(C)=O)[C@H](OC(C)=O)[C@H]1OC(C)=O [auranofin, reference compound]	this was not the case	remains stable	produces the same fast and pronounced increase in probe oxidation as in the cytoplasm	–	–	–	–	able to repress the activity of the truncated enzyme, although to a lesser extent	–	induced fast and strong increase of peroxides	showed no affect with increasing DTNB concentrations	an effect not observed
